From PMC9106035, “Synthesis, X-ray Structure and Biological Studies of New Self-Assembled Cu(II) Complexes Derived from s-Triazine Schiff Base Ligand” (Molecules, 2022)
In brackets after ≈: the same amount, converted by molar mass.

How the values were obtained:
[1] = DPPH radical scavenging assay; assay type: biochemical
Summary of the method: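 Methanolic compound solution was added to 0.004 %w/v methanolic DPPH, and absorbance at 515 nm was followed each minute until stable at 16 min. Percent inhibition was taken as control absorbance at 0 min versus sample at 16 min, in triplicate. IC50 was estimated from dose-response plots, with ascorbic acid as reference.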

[2] = Cytotoxic activity on normal cells, MTT viability assay; assay type: cell-based, human; conditions: human, MRC-5 normal lung fibroblast cells
Description: (§1) In this regard, the selectivity index (SI) was calculated as the ratio of cytotoxic effect on the normal cell line to the cytotoxic effect on the cancer cell line.
(§2) Method S4 Evaluation of Cytotoxic activity
(§3) The cells were propagated in Dulbecco’s modified Eagle’s medium (DMEM) supplemented with 10% heat-inactivated fetal bovine serum, 1 % L-glutamine, HEPES buffer and 50µg/mL Gentamycin. All cells were maintained at 37 °C in a humidified atmosphere with 5% CO2 and were subcultured tw o times a week.
(§4) Cytotoxicity evaluation using viability assay
(§5) For cytotoxicity assay, the cells were seeded in 96-well plate at a cell concentration of 1×10^4 cells per well in 100µl of growth medium. Fresh medium containing different concentrations of the test sample was added after 24 h of seeding. Serial two-fold dilutions of the tested chemical compound were added to confluent cell monolayers dispensed into 96-well, flat-bottomed microtiter plates (Falcon, NJ, USA) using a multichannel pipette. The microtiter plates were incubated at 37 °C in a humidified incubator with 5% CO2 for a period of 24 h. Three wells were used for each concentration of the test sample. Control cells were incubated without test sample and with or without DMSO. The little percentage of DMSO present in the […]
(§6) cells for at 37°C, for 24 h, the viabl e cells yield was determined by the MTT test.
(§7) Briefly, the media was removed from the 96 well plate and replaced with 100 µL of fresh culture DMEM m edium without phenol red then 10 µL of the 12 mM MTT stock solution (5 mg of MTT in 1 mL of PBS) to each well including the untreated controls. The 96 well plates were then incubated at 37°C and 5% CO2 for 4 hours. An 85 µL aliquot of the media was removed from t he wells, and 50 µL of DMSO was added to each well and mixed thoroughly with the pipette and incubated at 37°C for 10 min. Then, the optical density was measured at 590 nm with the microplate reader (SunRise, TECAN, Inc, USA) to determine the number of viable cells and the percentage of viability was calculat ed as [(ODt/ODc)]x100% where ODt i s the mean optical density of wells treated with the tested s ample and ODc is the mean optical density of untreated cells. The relation between surviving cells and drug concentration is plotted to get the survival curve of each tumor cell line after treatment with the specified compound. The 50% inhibitory concentration (IC50), the concentration required to cause t oxic effects in 50% of intact cells, was estimated from graphic plots of the dose response curve for each conc. using Graphpad Prism software (San Diego, […]

[3] = tested on: normal human lung fibroblast MRC-5 cells; assay: as above; assay type: cell-based; conditions: Homo sapiens, MRC5, MRC-5, Table S12, read-out: Inhibitory %
Description: as §1, §2, §3, §4, §5, §6, §7

[4] = tested on: lung carcinoma A-549 cell line; assay: Anticancer activity, MTT viability assay; assay type: cell-based

CC(=NNc1nc(N2CCOCC2)nc(N2CCOCC2)n1)c1ccccc1O [DMOHT, 2-(1-(2-(4,6-dimorpholino-1,3,5-triazin-2-yl)hydrazono)ethyl)phenol]
DPPH Scavenging % ([1]; Conc. 2.5 μg/mL): 5.73%
DPPH Scavenging % ([1]; Conc. 5 μg/mL): 10.48%
DPPH Scavenging % ([1]; Conc. 10 μg/mL): 19.87%
DPPH Scavenging % ([1]; Conc. 20 μg/mL): 31.95%
DPPH Scavenging % ([1]; Conc. 40 μg/mL): 47.09%
DPPH Scavenging % ([1]; Conc. 80 μg/mL): 61.32%
DPPH Scavenging % ([1]; Conc. 160 μg/mL): 73.64%
DPPH Scavenging % ([1]; Conc. 320 μg/mL): 84.93%
DPPH Scavenging % ([1]; Conc. 640 μg/mL): 88.54%
DPPH Scavenging % ([1]; Conc. 1280 μg/mL): 93.87%
IC50 (DPPH scavenging) ([1]; antioxidant activity): 48.2 ± 1.08 µg/mL (≈ 121 µM)
viability at 24 h, 2.5 µM ([2]; MRC-5, sample conc. 2.5 µM, Table S12): 100%
viability at 24 h, 5 µM ([2]; MRC-5, sample conc. 5.0 µM, Table S12): 100%
viability at 24 h, 9.8 µM ([2]; MRC-5, sample conc. 9.8 µM, Table S12): 100%
viability at 24 h, 19.5 µM ([2]; MRC-5, sample conc. 19.5 µM, Table S12): 100%
viability at 24 h, 39.1 µM ([2]; MRC-5, sample conc. 39.1 µM, Table S12): 100%
viability at 24 h, 78.2 µM ([2]; MRC-5, sample conc. 78.2 µM, Table S12): 100%
viability at 24 h, 156.5 µM ([2]; MRC-5, sample conc. 156.5 µM, Table S12): 97.9%
viability at 24 h, 312.9 µM ([2]; MRC-5, sample conc. 312.9 µM, Table S12): 89.6%
viability at 24 h, 625.8 µM ([2]; MRC-5, sample conc. 625.8 µM, Table S12): 67.6%
viability at 24 h, 1251.7 µM ([2]; MRC-5, sample conc. 1251.7 µM, Table S12): 38.2%
CC50 at 24 h ([2]; MRC-5 cells, 24 h, MTT): 1000 µM
inhibition at 2.5 µM ([3]; sample conc. 2.5 µM): 0%
inhibition at 5 µM ([3]; sample conc. 5.0 µM): 0%
inhibition at 9.8 µM ([3]; sample conc. 9.8 µM): 0%
inhibition at 19.5 µM ([3]; sample conc. 19.5 µM): 0%
inhibition at 39.1 µM ([3]; sample conc. 39.1 µM): 0%
inhibition at 78.2 µM ([3]; sample conc. 78.2 µM): 0%
inhibition at 156.5 µM ([3]; sample conc. 156.5 µM): 2.14%
inhibition at 312.9 µM ([3]; sample conc. 312.9 µM): 10.4%
inhibition at 625.8 µM ([3]; sample conc. 625.8 µM): 32.4%
inhibition at 1251.7 µM ([3]; sample conc. 1251.7 µM): 61.8%
SI = CC50/IC50 ([4]; CC50 (MRC-5) / IC50 (A-549)): 1.77
viability at 2.5 µM ([4]; Homo sapiens, A549, A-549, sample conc. 2.5 µM, Table S7): 100%
inhibition at 2.5 µM ([4]; Homo sapiens, A549, A-549, sample conc. 2.5 µM, Table S7, read-out: Inhibitory %): 0%
viability at 5 µM ([4]; Homo sapiens, A549, A-549, sample conc. 5.0 µM, Table S7): 100%
inhibition at 5 µM ([4]; Homo sapiens, A549, A-549, sample conc. 5.0 µM, Table S7, read-out: Inhibitory %): 0%
viability at 9.8 µM ([4]; Homo sapiens, A549, A-549, sample conc. 9.8 µM, Table S7): 100%
inhibition at 9.8 µM ([4]; Homo sapiens, A549, A-549, sample conc. 9.8 µM, Table S7, read-out: Inhibitory %): 0%
viability at 19.5 µM ([4]; Homo sapiens, A549, A-549, sample conc. 19.5 µM, Table S7): 100%
inhibition at 19.5 µM ([4]; Homo sapiens, A549, A-549, sample conc. 19.5 µM, Table S7, read-out: Inhibitory %): 0%
viability at 39.1 µM ([4]; Homo sapiens, A549, A-549, sample conc. 39.1 µM, Table S7): 100%
inhibition at 39.1 µM ([4]; Homo sapiens, A549, A-549, sample conc. 39.1 µM, Table S7, read-out: Inhibitory %): 0%
viability at 78.2 µM ([4]; Homo sapiens, A549, A-549, sample conc. 78.2 µM, Table S7): 98.2%
inhibition at 78.2 µM ([4]; Homo sapiens, A549, A-549, sample conc. 78.2 µM, Table S7, read-out: Inhibitory %): 1.75%
viability at 156.5 µM ([4]; Homo sapiens, A549, A-549, sample conc. 156.5 µM, Table S7): 90.7%
inhibition at 156.5 µM ([4]; Homo sapiens, A549, A-549, sample conc. 156.5 µM, Table S7, read-out: Inhibitory %): 9.33%
viability at 312.9 µM ([4]; Homo sapiens, A549, A-549, sample conc. 312.9 µM, Table S7): 75.1%
inhibition at 312.9 µM ([4]; Homo sapiens, A549, A-549, sample conc. 312.9 µM, Table S7, read-out: Inhibitory %): 24.9%
viability at 625.8 µM ([4]; Homo sapiens, A549, A-549, sample conc. 625.8 µM, Table S7): 43.9%
inhibition at 625.8 µM ([4]; Homo sapiens, A549, A-549, sample conc. 625.8 µM, Table S7, read-out: Inhibitory %): 56.1%
viability at 1251.7 µM ([4]; Homo sapiens, A549, A-549, sample conc. 1251.7 µM, Table S7): 21.5%
inhibition at 1251.7 µM ([4]; Homo sapiens, A549, A-549, sample conc. 1251.7 µM, Table S7, read-out: Inhibitory %): 78.5%
IC50 ([4]; Homo sapiens, A549, A-549 cells, 24 h, MTT): 565 µM
